# Measurements: paper PMC6099540 (2018)
# Test system: c-KIT 1 (DNA, G4) AGGGAGGGCGCTGGGAGGAGGG
# Test: CD melting at 265 nm
# Details: 10 mM KCl, 90 mM LiCl; 10 mM Tris-HCl, pH 7.2; 2 µM DNA, 3 eq ligand; 1 °C/min
row,ΔTm [°C],Compound
1,5.9,CCn1c2ccccc2c2cc(/C=C/c3sc4ccccc4[n+]3CC)ccc21
2,5.4,CC[n+]1c(/C=C/c2ccc3c(c2)c2ccccc2n3CCCCn2cncn2)sc2ccccc21
3,8.4,CC[n+]1c(/C=C/c2ccc3c(c2)c2ccccc2n3CCCCn2ccnc2)sc2ccccc21
